Laboratory results: US20020106354A1, “CELLULAR AND ANIMAL MODELS FOR DISEASES ASSOCIATED WITH ALTERED MITOCHONDRIAL FUNCTION” (priority 1998, published 2002)

What was measured:
[1] = test system: INS-1 cells; experiment: Quantification of mitochondrial DNA by slot blotting (COX-I probe) in INS-1 cells treated with nucleoside analogs; format: cell-based, rat; conditions: for depleted for mtDNA / depleted for mitochondrial DNA / Relative [mtDNA] After Contact w/ Antiviral / effect on mtDNA content: seven days; for effect on mtDNA content: varying concentrations
Protocol: Media were replenished every two days. Cells were harvested at periodic intervals and assayed for insulin secretion and mtDNA content. INS-1 cells, or ρ^[…] cells generated using ddC as described above, were seeded into 12-well plates containing RPMI media supplemented as described above at 0.4×10^6 cells/well and cultured at 37° C., 5% CO2 for 2 days. Cells (0.7×10^6 cells/well) were rinsed with PBS and total cellular DNA was extracted using DNAzol (Molecular Research Center, Inc., Cincinnati, Ohio) according to the manufacturer's instructions. One hundred ng DNA from each cell preparation was slot-blotted onto a Zeta-Probe membrane (Bio-Rad, Hercules, Calif.) and crosslinked at 125 joules using a BioRad GS GeneLinker irradiation/energy source. The membranes were rinsed in hybridization buffer (5× SSC, 0.1% N-laurylsarcosine, 0.02% SDS, 1% blocking solution, Boehringer Mannheim, Indianapolis, Ind.) and hybridized overnight in the same buffer at 42° C. with the [^32P]-labeled rat COX I probe. Following hybridization, membranes were washed twice with 2X SSC/0.1% SDS and twice with 0.1× SSC/0.1% SDS and exposed to X-ray film. Mitochondrial DNA was quantified by densitometric scanning of the resulting autoradiographs. Time Course of Effects of ddC on Mitochondrial DNA Content of INS-1 Cells INS-1 cells were grown in RPMI medium supplemented with 10% fetal calf serum, 2 mM […], 100 U/ml penicillin, 100 μg/ml streptomycin, 10 mM HEPES, 1 mM sodium pyruvate, 50 μg/ml uridine, and 50 μM β-mercaptoethanol, in the presence of 10 μM ddC. After various times in culture, cells were harvested for analysis of mtDNA content. Total cellular DNA was extracted from approximately one million cells using DNAzol (Molecular Research Center, Inc. Cincinnati, Ohio) essentially according to the manufacturer's instructions. One hundred ng total DNA was analyzed by slot-blot on Zeta-Probe membranes (Bio-Rad, Hercules, Calif.). The membranes were hybridized with a [^32P]-labeled probe complementary to the mitochondrial gene encoding COXI. Autoradiograms were prepared, and the relative content of mitochondrial DNA (mtDNA) estimated by the relative densities of the autoradiographic bands.

[2] = test system: patients; conditions: cited from earlier work
[3] = test system: INS-1 cells; experiment: Insulin secretion by mtDNA-depleted INS-1 cells (insulin radioimmunoassay); format: cell-based, rat; conditions: 10 μM for 40 days
Protocol: INS-1 cells, or ρ^[…] cells generated using ddC as described above, were seeded into 12-well plates containing RPMI media supplemented as described at 0.5×10^6 cells/well and cultured at 37° C., 5% CO2 for 2 days. Cells (0.7×10^6 cells/well were rinsed with glucose-free KRH buffer (134 mM NaCl, 4.7 mM KCl, 1.2 mM KH2PO4, 1.2 mM MgSO4, 1.0 mM CaCl2, 10 mM HEPES, 10 mM NaHCO3, 0.5% BSA), then incubated in the same buffer for 1 hr at 37° C. in a humidified 5% Co2/95% air atmosphere. Fresh KRH buffer containing 0.5 mM isobutylmethyl xanthine and the following secretagogues was added: 5 mM glucose, 10 mM glucose, 20 mM glucose, 5 mM KCl or 20 mM KCl. After an additional 1 hr at 37° C., 5% CO2 the culture supernatants were collected. Insulin concentrations in the supernatants were measured and normalized to cell number using an insulin-specific radioimmunoassay kit (ICN Biochemicals, Irvine, CA) according to the manufacturer's instructions.

[4] = test system: INS-1 cells; experiment: Oxygen consumption (Clark oxygen electrode) before and after KCN; format: cell-based, rat; conditions: ddC for >50 days (Rho revertants), before and after 1 uM KCN (FIG. 4)
Protocol: Neurochem. 67:1897-1907, 1996) before and after the addition of 1 uM KCN. KCN inhibits mitochondrial respiration, primarily via its effect on Complex IV activity.

[5] = test system: INS-1 cells; experiment: Lactate production in ddC-treated INS-1 cells; format: cell-based, rat
Protocol: Lactate production was measured in ddC-treated and control INS-1 cells at approximately day 40 and day 50 of ddC incubation. Cells were grown in 35 mm dishes. Media were replenished 16 hr before assay with normal culture media containing various amounts of glucose. The media were then collected, and lactate measured using a commercially available kit, in which lactate dehydrogenase is used to produce a fluorescent compound (Sigma, St. Louis, Mo.), essentially according to the manufacturer's instructions.

With `Cc1cn([C@H]2C[C@H](N=[N+]=[N-])[C@@H](CO)O2)c(=O)[nH]c1=O` [AZT, 3′-azido-3′ deoxythymidine] the “depleted for mtDNA” value ([1]; 5 μM) was “no depletion of mtDNA”, the “depleted for mtDNA” value ([1]; 10 μM) was 4% and the “depleted for mtDNA” value ([1]; 50 μM) was 15%. The “depleted for mitochondrial DNA” value ([1]; 100 μM) was “no depletion of mtDNA”.

For `O=c1[nH]c(=O)n([C@@H]2O[C@H](CO)[C@@H](O)[C@@H]2F)cc1I` [FIAU, fialuridine], the “Relative [mtDNA] After Contact w/ Antiviral” value ([1]; 10 μM, INS-1 cells) was 0.66, the “depleted for mitochondrial DNA” value ([1]; 100 μM) was 61% and the “Relative [mtDNA] After Contact w/ Antiviral” value ([1]; 100 μM, INS-1 cells) was 0.39.

For `Cc1cn([C@H]2C=C[C@@H](CO)O2)c(=O)[nH]c1=O` [d4T, 2′3′-didehydro-3-deoxythymidine], the “side-effect of treatment: peripheral neuropathy” value [2] is listed as “axonal peripheral neuropathy”, the “Relative [mtDNA] After Contact w/ Antiviral” value ([1]; 10 μM, INS-1 cells) is listed as 0.98 and the “Relative [mtDNA] After Contact w/ Antiviral” value ([1]; 50 μM, INS-1 cells) is listed as 0.56. For the same compound, the “depleted for mitochondrial DNA” value ([1]; 100 μM) was 95%, the “Relative [mtDNA] After Contact w/ Antiviral” value ([1]; 100 μM, INS-1 cells) was 0.05 and the “effect on mtDNA content” value ([1]; INS-1 cells (FIG. 1)) was “decreased mtDNA content in a dose-dependent fashion”.

In the case of `Nc1ccn([C@H]2CC[C@@H](CO)O2)c(=O)n1` [ddC, 2′3′-dideoxycytidine], the KCl-mediated insulin secretion [3] is listed as “remained intact”, the “glucose stimulated insulin secretion” value ([3]; 5, 10, 20 mM glucose (FIG. 3)) is listed as “no glucose stimulated insulin secretion was observed” and the “side-effect of treatment: peripheral neuropathy” value [2] is listed as “axonal peripheral neuropathy”. The “side-effect of treatment: neuropathy” value ([2]; particularly diabetics) was “toxic and painful neuropathy”, the “mitochondrial-mediated respiration (oxygen consumption)” value [4] was “mitochondrial-mediated respiration (Complex IV activity) was present” and the “Relative [mtDNA] After Contact w/ Antiviral” value ([1]; 5 μM, INS-1 cells) was 0.86. The “Relative mtDNA content per million cells” value ([1]; 10 μM ddC, day 3) was 0.46, the “Relative mtDNA content per million cells” value ([1]; 10 μM ddC, day 7) was 0.41 and the “Relative mtDNA content per million cells” value ([1]; 10 μM ddC, day 14) was 0.055. For the same compound, the “Relative mtDNA content per million cells” value ([1]; 10 μM ddC, day 21) was 0.020, the “Relative mtDNA content per million cells” value ([1]; 10 μM ddC, day 40) was 0.0021 and the “Relative mtDNA content per million cells” value ([1]; 10 μM ddC, day 60) was 0.550. The “Relative mtDNA content per million cells” value ([1]; 10 μM ddC, day 80) was 0.81, the “mtDNA content relative to pretreatment (day 0)” value ([1]; 10 μM ddC, day 80, about one million cells) was “about 80%” and the mtDNA detectability ([1]; 10 μM, 40 days) was “undetectable”. For the same compound, the “Relative [mtDNA] After Contact w/ Antiviral” value ([1]; 10 μM, INS-1 cells) was 0.86, the mtDNA detectability ([1]; 25 μM, after 21 days, INS-1 cells) was “undetectable” and the “Relative [mtDNA] After Contact w/ Antiviral” value ([1]; 50 μM, INS-1 cells) was 0.41. The “depleted for mitochondrial DNA” value ([1]; 100 μM) was 69%, the “Relative [mtDNA] After Contact w/ Antiviral” value ([1]; 100 μM, INS-1 cells) was 0.31 and the IC50 ([1]; Rattus norvegicus, INS1, 168 h, seven days incubation, INS-1 cells (FIG. 1), read-out: IC50 for decrease of mtDNA content) was ~50 µM. The “effect on mtDNA content” value ([1]; INS-1 cells (FIG. 1)) was “decreased mtDNA content in a dose-dependent fashion”, the “lactate produced relative to control (untreated) cells” value ([5]; 40-day ddC-treated cells, 25 or 50 mM glucose) was > 5 times and the “lactate produced compared with control (untreated) cells” value ([5]; after more than about 50 days ddC) was “comparable amounts of lactate”.

For `O=c1[nH]cnc2c1ncn2[C@H]1CC[C@@H](CO)O1` [ddI, 2′3′-dideoxyinosine], the “depleted for mitochondrial DNA” value ([1]; 100 μM) was 80% and the “effect on mtDNA content” value ([1]; INS-1 cells (FIG. 1)) was “decreased mtDNA content in a dose-dependent fashion”.
